As a reminder, the half-life is how long it takes for the measured level to halve. The low end stands for rapid decline, the high end for slow decline. One may read the AUC(0-t) as the area under the concentration-time curve up to a stated or last time point. Read a high AUC(0-t) as more exposure. One may read the Cmax as the peak of the concentration-time curve. By Tmax is commonly meant the time at which the peak concentration occurs.

In data set [1] the test system is mice with paclitaxel-induced neuropathic pain (CIPN). The data set is described as follows: von Frey paw withdrawal threshold (mechanical allodynia), paclitaxel-induced CIPN / central sensitization, treatment of established pain, topical test compounds. Type of data set: in vivo, mouse. How it is done: Paw withdrawn, licking or shaking were considered positive responses.
(§1) The first doses were administered 5 days after the last administration of paclitaxel (i.e., at day 0).
The PWT test was performed prior to the administration of paclitaxel (day −8) to establish the threshold in mice without neuropathic pain associated with CIPN (the value shown is an average of the PWT in all groups at day −8).
Pain associated with CIPN was established in line with the experiments disclosed herein. Mice were treated with naproxen 2.4% (equimolar to PN 5%), aspirin 1.7% (equimolar to PA2 5%); or ibuprofen 2.5% (equimolar to PI 5%) or vehicle applied topically to both hind paws 3×/day for 14 days.
CIPN was induced in mice with chemotherapeutic agents using established protocols (Carozzi et al, 2010; Currie et al, 2019; Eldridge et al, 2020).
The first doses were administered 1 day after the last administration of paclitaxel (i.e., at day 0).
as §1
The PWT test was performed on day 21, at the end of the experiment, but was also additionally determined on day 14 for LXIX.

Data set [2] relates to mice with paclitaxel-induced CIPN. The data set is described as follows: von Frey PWT, paclitaxel CIPN model, orally administered compounds. Type of data set: in vivo, mouse. The following applies: mouse, in vivo.
From the text: CIPN was induced in mice with chemotherapeutic agents using established protocols (Carozzi et al, 2010; Currie et al, 2019; Eldridge et al, 2020). […] This dosing regimen of paclitaxel produces pain associated with CIPN with time courses that are similar to those of pain after paclitaxel administration in cancer patients.
Group 1: naïve mice (i.e. no paclitaxel, n=8) • 2. Group 2: paclitaxel only (n=8) • 3. Group 3: paclitaxel plus vehicle (n=8) • 4. […] Group 5: paclitaxel pluse sulindac (n=8)
The PWT test was performed on day 7.
Phospho-naproxen (PN) and naproxen were given by oral gavage, three times a day for 7 days. Their doses were as follows: PN, 65 mg/kg; naproxen, 35 mg/kg (equimolar to PN). The response of mechanical allodynia to phospho-naproxen (PN) and naproxen was tested on day 7.
(§2) This dosing regimen of paclitaxel produces pain associated with CIPN with time courses that are similar to those of pain after paclitaxel administration in cancer patients.
Phospho-ibuprofen (PI) (Formula III), phospho-glycerol-ibuprofen (PGI) (Formula LXXI), phospho-ibuprofen-amide (PIA) (Formula XI), and ibuprofen were given by oral gavage, three times a day for 6 days. Their doses were as follows: ibuprofen, 40 mg/kg; PI, 80 mg/kg; PIA, 80 mg/kg; all three were equimolar.
The response of mechanical allodynia to these compounds was tested on day 6, using the PWT test.
as §2
NO-sulindac (Formula XLIV), HS-sulindac (Formula XXXIV), platinum-sulindac (Formula LXVII), and NOSH-1 (Formula LIX) were given by oral gavage, three times a day throughout the study period. Their doses were all 100 mg/kg.
The response of mechanical allodynia to these compounds was tested on the days set out in the table below, via the PWT test.
LXIX was given by oral gavage, once a day for 14 days at a dose of 100 mg/kg.
The response of mechanical allodynia to these compounds was tested on day 14, via the PWT test.

Data set [3] has as its system mice with chronic constriction injury of the left sciatic nerve (PTPN). The data set is described as follows: von Frey PWT, chronic constriction injury (CCI) model of PTPN, topical compounds. Type of data set: in vivo, mouse. The following applies: PI, PN 5% on left hind paw 3x/day 14 days; day 14. Here is the method: The PWT test was performed following ligation, but prior to treatment to determine baseline values. The PWT was then further measured on day 14.

In data set [4] the test system is mice with NTG-induced migraine. The data set is described as follows: von Frey PWT, NTG-induced migraine model, oral or intraperitoneal compounds. Type of data set: in vivo, mouse. The note with it: mouse, in vivo. Here is the method:
Phosphonaproxen (Formula VIII), and its parent compound, naproxen, were administered orally to each mouse group. All compounds were administered at equimolar doses. In particular, phosponaproxen was administered at 65 mg/kg, and naproxen was administered at 35 mg/kg, 30 minutes after NTG administration. The response of mechanical allodynia was tested 30 minutes after administration.

A short description of data set [5]: in vivo. The note with it: Sprague-Dawley, rat, po, 95 mg/kg; for AUC(0-t): AUC0-24 h; for AUC(0-t) / Cmax / Tmax: single oral dose PN 95 mg/kg, rats. How it is done: Approximately 800 μL of blood were collected through cardiac puncture and immediately centrifuged.
Tissue samples were harvested using separate dissection instruments for each tissue sample to avoid cross contamination, and snap frozen. The levels of the test drug were determined by HPLC.
As previously described (Wen et al, 2019), each plasma sample was mixed with double volume of acetonitrile and centrifuged at 13,200 rpm for 15 min. Tissue samples were weighed, ddH2O (100-300 μL, depending on tissue weight) was added, and they were homogenized. Following addition of acetonitrile (twice the volume of the homogenate), the mixture was sonicated for 10 min, centrifuged at 13,200 rpm for 15 min, and analyzed by HPLC, as reported (Wen et al, 2019).
It was performed following a previously reported method (Xie et al, 2012). Briefly, the HPLC system consisted of a Waters Alliance 2695 Separations Module (Milford, MA, USA) equipped with a Waters 2998 photodiode array detector (328 nm) and a Thermo Hypersil BDS C18 column (150×4.6 mm, particle size 3 μm). The mobile phase consisted of a gradient between solvent A (formic acid, CH3CN, H2O (0.1:4.9:95 v/v/v)) and solvent B (CH3CN) at a flow rate of 1 mL·min−1 at 30° C. We applied gradient elution from 30 to 100% solvent B from 0-6 min, and it was maintained at 100% solvent B until 8 min.
The methods are identical to those used in Example 27.
A single dose of PN or PSA was given by oral gavage to groups of three Sprague-Dawley rats, which were euthanized and dissected according to the early example. The oral gavage solution of phosphonaproxen was prepared by dissolving in 10% DMSO and then suspending it in corn oil.

For data set [6], the system named is carboxylesterases.

Take `CCOP(=O)(OCC)OCCCCOC(=O)C(C)c1ccc2cc(OC)ccc2c1` (stereo not shown) [PN, phospho-naproxen]: in data set [1] (group value after paclitaxel, before study drug), the “Paw-withdrawal threshold, g Mean ± SEM, Day 0” value came to 0.64 ± 0.06 g. Also, in data set [1] (mouse, in vivo), the “Paw-withdrawal threshold, g Mean ± SEM, Day 14” value worked out at 1.19 ± 0.09 g. Further, the “PWT, g Mean ± SEM” value amounted to 0.66 ± 0.03 g in data set [2], 1.70 ± 0.12 g in data set [3] and 1.48 ± 0.22 g in data set [4]. This compound also had a half-life in data set [5] of 540 min. The AUC(0-t) in data set [5] (blood) turned out to be 1.7 µM·h; in data set [5] (cerebellum), 3.1 µM·h; in data set [5] (medulla), 6.9 µM·h; in data set [5] (stomach), 4340 µM·h; in data set [5] (vagus nerve), 63.1 µM·h. Further, the Cmax was determined as 3.5 ± 1.2 µM in data set [5] (blood); 1.2 ± 0.02 µM in data set [5] (cerebellum); 3.1 ± 0.6 µM in data set [5] (medulla); 717.2 ± 5 µM in data set [5] (stomach); 24.2 ± 3.1 µM in data set [5] (vagus nerve). Also, the Tmax in data set [5] (blood) came out at 60 min; in data set [5] (cerebellum) it was 30 min; in data set [5] (medulla) it was 30 min; in data set [5] (stomach) it was 60 min; in data set [5] (vagus nerve), 30 min. The “hydrolysis by carboxylesterases, times slower than PS” value in data set [6] is given as “about 5 times”.

For the origin of these results see patent publication US20260102413A1, “TREATING PAIN ASSOCIATED WITH CENTRAL SENSITIZATION” (Medicon Pharmaceuticals, Inc., priority 2022, published 2026).
